Data as given in publication PMC7463930, “Evidence Supporting an Antimicrobial Origin of Targeting Peptides to Endosymbiotic Organelles” (Cells, 2020).
No end group written: not given here.

Test system: Bacillus subtilis
Assay: Standard minimum inhibitory concentration broth microdilution assay
Assay type: cell-based
Procedure: Standard minimum inhibitory concentration broth microdilution assays in the presence of BSA/acetic acid were performed in triplicate as described in [65] using peptides chemically synthesized to ≥95% purity (Proteogenix). Dilution series are based on net peptide content, calculated by multiplying the dry weight by %N and by purity. %N is a measure of the peptide (rather than salt) fraction in the lyophilized product, while purity, provided by the manufacturer, is the fraction of the peptide with the desired sequence among all supplied peptides.
To determine the AMP-activity of TPs, we performed the symmetrical experiment. Several chemically synthesized TPs, chosen for their variable proximity to Class I HA-RAMPs (Figure S8B), were used to challenge Bacillus subtilis in a standard assay, using magainin II as a positive control (Figure 7). […] A high sensitivity was deemed a useful feature for an antimicrobial assay in this proof-of-principle experiment, since we expected TPs to have a lower activity than bona fide AMPs as they have been selected for targeting and not for impeding microbial growth over the last 1.5 By.
B. subtilis was challenged with serial dilutions of synthetic peptides (See Table S7 for sequences): the Rattus norvegicus peptide hormone cholecystokinin-22, the C. reinhardtii tSP of lumenal 16.5 kDa protein, the HA-RAMP magainin II, Neurospora crassa mTP of ATP synthase F1β subunit and C. reinhardtii cTPs from RBCA and plastocyanin (PCY1) or mTPs from cytochrome c oxidase 12 kDa subunit (COX13) and Serine HydroxylMethyl Transferase 1 (SHMT1). (A) One dilution plate out of three performed replicates is shown to illustrate how the data was obtained. Transparent wells illustrate absence of growth. Red arrows point to the minimal peptide inhibiting concentration. (B) Minimum inhibitory concentrations (MIC) for each of the three replicate plates are reported in a table. TEXT PRINTED IN THE PICTURE: (B) cck-22: MIC (μg/ml) rep 1: >1000; MIC (μg/ml) rep 2: >1000; MIC (μg/ml) rep 3: >1000 | (B) TL16-tSP: MIC (μg/ml) rep 1: >1000; MIC (μg/ml) rep 2: >1000; MIC (μg/ml) rep 3: >1000 | (B) Magainin II: MIC (μg/ml) rep 1: 4; MIC (μg/ml) rep 2: 4; MIC (μg/ml) rep 3: 4 | (B) pF1β-mTP: MIC (μg/ml) rep 1: 8; MIC (μg/ml) rep 2: 4; MIC (μg/ml) rep 3: 8 | (B) RBCA-cTP: MIC (μg/ml) rep 1: 63; MIC (μg/ml) rep 2: 63; MIC (μg/ml) rep 3: 63 | (B) COX13-mTP: MIC (μg/ml) rep 1: 250; MIC (μg/ml) rep 2: 250; MIC (μg/ml) rep 3: 250 | (B) PCY1-cTP: MIC (μg/ml) rep 1: 1000; MIC (μg/ml) rep 2: 1000; MIC (μg/ml) rep 3: 1000 | (B) SHMT1-mTP: MIC (μg/ml) rep 1: 31; MIC (μg/ml) rep 2: 31; MIC (μg/ml) rep 3: 31

- MIC (μg/ml) rep 1 (B. subtilis, broth microdilution in the presence of BSA/acetic acid, serial dilutions based on net peptide content, peptides synthesized to ≥95% purity, replicate plate 1 of 3): > 1000 µg/mL
- MIC (μg/ml) rep 2 (B. subtilis, broth microdilution in the presence of BSA/acetic acid, serial dilutions based on net peptide content, peptides synthesized to ≥95% purity, replicate plate 2 of 3): > 1000 µg/mL
- MIC (μg/ml) rep 3 (B. subtilis, broth microdilution in the presence of BSA/acetic acid, serial dilutions based on net peptide content, peptides synthesized to ≥95% purity, replicate plate 3 of 3): > 1000 µg/mL
Substance: cholecystokinin-22 (NLQGLDPSHRISDRDYMGWMDF; ends and bridges not checked; UniProt P01355 82-103, looked up) [cck-22, Rattus norvegicus small peptide hormone cholecystokinin-22, used as negative control]
- inhibited growth (in words) (B. subtilis challenged with chemically synthesized peptides, negative controls): neither
